Data: US11254720B2, “Methods and systems for designing and/or characterizing soluble lipidated ligand agents” (Tufts Medical Center, priority 2013, dated 2022)
Where two headings read alike, the source gives them in different places. Each block holds one molecule with its values, some of them ahead of it. Non-standard residues stand in square brackets, D forms with d. Residues, ends and D or L forms follow the SMILES beside them. Tic = O=C(O)[C@@H]1Cc2ccccc2CN1

Key:
Adult CD1 mice = assay: Chronic constriction injury neuropathic pain model, von Frey and acetone tests; assay type: in vivo, mouse; conditions: intrathecal 100 pmol, 1 week after CCI
Excerpt: Intrathecal injection of 1-stable chem (100 pmol), 1 week after CCI, reduces CCI-induced mechanical hypersensitivity (panels A+C) and cold allodynia (panel E). Intrathecal injection of ResolvinE1 (RvE1)(100 pmol), 1 week after CCI, reduces CCI-induced mechanical hypersensitivity (panels B+D) and cold allodynia (panel F). BL=baseline before surgery.
Adult CD1 mice (male, 25-35 g) were used for behavioral studies. Mice were group-housed and kept under a 12-hour light/dark cycle. […]
Nerve injury-induced mechanical allodynia and hypersensitivity were assessed by von Frey hairs as previously described (see Xu et al., Resolvin E1 inhibits neuropathic pain and spinal cord microglial activation following peripheral nerve injury, 2013, J. Neuroimmune Pharmacol, 8: 37-41). […] The 50% paw withdrawal threshold (PWT) was determined using Dixon's up-down method. For paw withdrawal frequency (PWF), the same von Frey hair (0.16 g) was applied 10 times and the number of positive responses to the stimulations counted. A positive response was scored if the mouse sharply withdrew the paw or flinched upon removal of the stimulus. […] In brief, a drop of acetone was placed against the plantar paw of the mouse and the mouse's response monitored for the next 20 seconds. […]

CCK2R = target: T1, CCK2R (Homo sapiens, UniProt P32239); assay: Antagonist inhibition of agonist-induced CCK2R signaling (luciferase); assay type: cell-based
T1 construct: expressed in transfected cells; host or cells: HEK293
T1 sequence (P32239 1-447): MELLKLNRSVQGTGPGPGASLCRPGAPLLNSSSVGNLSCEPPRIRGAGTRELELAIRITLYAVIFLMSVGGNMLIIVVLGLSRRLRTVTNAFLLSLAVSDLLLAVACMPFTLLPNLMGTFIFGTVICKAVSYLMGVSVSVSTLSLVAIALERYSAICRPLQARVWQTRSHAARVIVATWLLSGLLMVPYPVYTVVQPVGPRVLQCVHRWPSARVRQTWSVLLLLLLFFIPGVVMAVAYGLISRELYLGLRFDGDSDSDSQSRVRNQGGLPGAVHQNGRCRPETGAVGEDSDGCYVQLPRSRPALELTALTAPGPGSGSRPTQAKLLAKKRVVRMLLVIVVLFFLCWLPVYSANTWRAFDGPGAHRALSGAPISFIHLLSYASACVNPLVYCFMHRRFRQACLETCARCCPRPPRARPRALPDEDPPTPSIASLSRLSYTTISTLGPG
Method: A) YM022 blocks tethered CCK4-Gly mediated CCK2R signaling. HEK293 cells were cotransfected with cDNAs encoding: CCK2R, a 5X-SRE-Luc-pest reporter gene, tCCK4-Gly (as indicated), and a β-galactosidase gene to control for transfection efficiency. Four hours following transfection, cells were with treated with increasing concentrations of YM022 for 20 hours. […] B) YM022 blocks s-CCK-4-Gly-COOH and l-CCK4-Gly-COOH mediated activation of CCK2R. HEK293 cells were transfected as indicated above. Twenty hours after transfection, cells were with treated with increasing concentrations of YM022 together with either 10 μM of l-CCK4-Gly-COOH or s-CCK4-Gly-COOH. […] Abbreviations: tCCK4-Gly, tethered glycine extended CCK4; s-CCK4-Gly-COOH, soluble glycine extended CCK4 with a C-terminal free acid; 1-CCK4-Gly-COOH, lipidated glycine extended CCK4 with a C-terminal free acid; CCK2R, cholecystokinin 2 receptor.

human CMKLR1 [1] = target: T2, human CMKLR1 (Homo sapiens, UniProt Q99788); assay: SRE-luciferase reporter gene assay in transfected HEK293 cells; conditions: for Activity of membrane-tethered ligand at human CMKLR1: tethered ligand cDNA cotransfected, luciferase 24 hours after transfection
T2 sequence (Q99788 1-373): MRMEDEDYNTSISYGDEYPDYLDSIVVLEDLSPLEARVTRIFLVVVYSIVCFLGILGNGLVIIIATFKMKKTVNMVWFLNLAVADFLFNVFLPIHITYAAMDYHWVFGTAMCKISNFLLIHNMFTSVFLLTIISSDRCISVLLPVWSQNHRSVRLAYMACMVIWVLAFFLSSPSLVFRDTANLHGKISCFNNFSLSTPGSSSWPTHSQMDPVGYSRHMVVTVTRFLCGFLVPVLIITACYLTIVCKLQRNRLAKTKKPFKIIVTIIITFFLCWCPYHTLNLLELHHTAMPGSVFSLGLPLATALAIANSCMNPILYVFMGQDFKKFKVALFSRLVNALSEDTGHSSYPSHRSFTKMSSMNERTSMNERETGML
Method: (§1) Receptor-mediated signaling was assessed as previously described. Briefly, HEK293 cells were plated at a density of 6,000 cells/well into 96-well clear-bottom plates and grown to ˜80% confluence. […] Expression of Gq5i66V directs signaling of the Gαi-coupled chemerin receptor to stimulation of a Gαq-dependent SRE5x-Luc-PEST reporter gene. For experiments investigating the agonist function of soluble and lipidated peptides, tethered ligand cDNA was not included in the transfection mixture. Twenty four hours after transfection, cells were stimulated with or without peptide agonist for 4 hours in serum-free medium. […] Following ligand stimulation, the media was aspirated and luciferase activity measured using SteadyLite reagent and quantified using a TopCount NTX. A β-galactosidase assay was then performed following assessment of luminescence. Cleavage of 2-nitrophenyl β-D-galactopyranoside substrate was quantified after incubation of cell lysates at 37° C. for 30 to 60 minutes by measuring the optical density at 420 nm on a SpectraMax microplate reader. Luciferase reporter gene activities were normalized to corresponding β-galactosidase activity controls.
(§2) HEK293 cells were transiently transfected with cDNAs encoding i) human or mouse CMKLR1, ii) a SRE5x-Luc reporter gene, iii) a Gαq5i66V chimera, and iv) a β-galactosidase control. Twenty-four hours after transfection, cells were stimulated with ligand for 4 hours and luciferase activity determined as described in Experimental Procedures. Luciferase activity was normalized relative to the maximal value observed using saturating concentrations of the corresponding soluble ligand (=100%). […] As a next step, the effect of membrane anchoring on chemerin activity was examined. […] HEK293 cells were transiently transfected with cDNAs encoding i) various tethered ligands, ii) human or mouse CMKLR1, iii) a SRE5x-Luc reporter gene, iv) aGαq5i66V chimera, and v) a β-galactosidase control. Twenty-four hours after transfection, luciferase activity was determined as described in Experimental Procedures.
(§3) HEK293 cells were transiently transfected with cDNAs encoding i) 8 ng of various tethered ligands, ii) human or mouse CMKLR1, iii) a SRE5x-Luc reporter gene, iv) a Gαq5i66V chimera, and v) a β-galactosidase control. Twenty-four hours after transfection, luciferase activity was determined as described in Experimental Procedures.

mouse CMKLR1 [2] = target: T3, mouse CMKLR1 (Mus musculus, UniProt P97468); assay: as above; conditions: for Activity of membrane-tethered ligand at mouse CMKLR1: tethered ligand cDNA cotransfected, luciferase 24 hours after transfection
T3 sequence (P97468 1-371): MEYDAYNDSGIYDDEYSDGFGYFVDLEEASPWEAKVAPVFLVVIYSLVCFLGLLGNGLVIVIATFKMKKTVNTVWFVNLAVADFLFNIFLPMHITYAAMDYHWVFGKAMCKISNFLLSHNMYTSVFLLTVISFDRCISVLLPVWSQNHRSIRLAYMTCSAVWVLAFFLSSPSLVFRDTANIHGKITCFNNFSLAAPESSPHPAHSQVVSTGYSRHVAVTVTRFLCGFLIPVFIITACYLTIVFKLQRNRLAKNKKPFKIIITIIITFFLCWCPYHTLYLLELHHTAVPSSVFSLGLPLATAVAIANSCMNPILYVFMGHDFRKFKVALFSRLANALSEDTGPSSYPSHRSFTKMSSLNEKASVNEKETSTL
Method: as §1, §2, §3

human CMKLR1 [3] = target: T2, human CMKLR1; assay: Washout experiments (serial washes after 15 min ligand, luciferase readout); conditions: three washes after 15 min ligand
Method: (§4) Agonist activity was compared with and without serial washings shortly after addition of ligand. Briefly, HEK293 cells were plated and transfected as described above with the addition of a poly-L-lysine plate pretreatment step to enhance cell adhesion. Twenty-four hours after transfection, cells were stimulated with increasing concentrations of agonist for 15 minutes at 37° C. Selected wells were washed three times with serum-free media. Plates were then incubated for an additional 4 hours. Receptor mediated signaling was assessed using a luciferase based assay as described above.
(§5) HEK293 cells were transiently transfected with cDNAs encoding i) human or mouse CMKLR1, ii) a SRE5x-Luc reporter gene, iii) a Gαq5i66V chimera, and iv) a β-galactosidase control. Twenty-four hours after transfection, cells were stimulated with increasing concentrations of various ligands for 15 minutes. Selected wells were then washed three times with serum-free media and plates were further incubated for 4 hours.

[4] = tested on: HEK293 cells transfected with vector control (pcDNA1.1); assay: Luciferase reporter assay in cells transfected with vector control; assay type: cell-based, human; conditions: cells transfected with pcDNA1.1 vector control
Method: as §1

mouse CMKLR1 [5] = target: T3, mouse CMKLR1; assay: Washout experiments (serial washes after 15 min ligand, luciferase readout); conditions: three washes after 15 min ligand
Method: as §4, §5

Molecule: CC[C@@H](O)/C=C/C=C\C[C@@H](O)/C=C/C=C/C=C\[C@@H](O)CCCC(=O)O [RvE1, reference compound]
- Time point at which a significant decrease in pain scores was observed (Adult CD1 mice): 1 h

Molecule: Cc1cccc(NC(=O)N[C@@H]2N=C(c3ccccc3)c3ccccc3N(CC(=O)c3ccccc3C)C2=O)c1 [YM022]
- IC50 (CCK2R; agonist l-CCK4-Gly-COOH 10 μM, 4 hours, read-out: IC50 for inhibition of l-CCK4-Gly-COOH induced CCK2R signaling): 10.2 nM
- IC50 (CCK2R; agonist s-CCK4-Gly-COOH 10 μM, 4 hours, read-out: IC50 for inhibition of s-CCK4-Gly-COOH induced CCK2R signaling): 0.84 nM
- IC50 (CCK2R; agonist tCCK4-Gly (tethered), antagonist 20 hours, read-out: IC50 for inhibition of tCCK4-Gly induced CCK2R signaling): 0.54 nM

- Activity of membrane-tethered ligand at human CMKLR1 (human CMKLR1 [1]): activated
- Activity of membrane-tethered ligand at human CMKLR1 (human CMKLR1 [1]; listed as FS): comparable activity
- Activity of membrane-tethered ligand at mouse CMKLR1 (mouse CMKLR1 [2]): activated
Molecule: tChem 149-157: membrane-tethered C-terminal chemerin peptide (amino acids 149-157), endogenous sequence ending phenylalanine-serine (MSTSMIRDVELAEEALPKKTGGPQGSRRCLFSLFIVAGATTLFCLLHFGVIYFPGQFAFS; left off: small tags and cut ends)

- Agonist activity after serial washes, human CMKLR1 (human CMKLR1 [3]): rapidly decreased
- EC50 (human CMKLR1 [1]; pEC50, Human CMKLR1, no wash, mean ± S.E.M.): 61.7 nM
- Agonist activity after serial washes, mouse CMKLR1 (mouse CMKLR1 [5]): rapidly decreased
- EC50 (mouse CMKLR1 [2]; pEC50, Mouse CMKLR1, no wash, mean ± S.E.M.): 12 nM
Molecule: CC(C)C[C@H](NC(=O)[C@H](Cc1ccccc1)NC(=O)[C@H](N)Cc1ccc(O)cc1)C(=O)N1CCC[C@H]1C(=O)N[C@H](CO)C(=O)N[C@@H](CCC(N)=O)C(=O)N[C@@H](Cc1ccccc1)C(=O)N[C@H](C)C(=O)N1Cc2ccccc2C[C@H]1C(=O)N[C@@H](CO)C(=O)O [s-Stable Chem, reference compound] (H-[dY]FLP[dS]QF[dA][Tic]S-OH)
- Agonist activity without CMKLR1 expression [4]: no agonist activity

- Activity of membrane-tethered ligand at human CMKLR1 (human CMKLR1 [1]): lack activity
- Activity of membrane-tethered ligand at mouse CMKLR1 (mouse CMKLR1 [2]): lack activity
B1: tChem 1-163: membrane-tethered ligand encoding pre-prochemerin (amino acids 1-163), TNFα transmembrane domain (protein)
chain: MSTSMIRDVELAEEALPKKTGGPQGSRRCLFSLFIVAGATTLFCLLHFGVIMRRLLIPLALWLGAVGVGVAELTEAQRRGLQVALEEFHKHPPVQWAFQETSVESAVDTPFPAGIFVRLEFKLQQTSCRKRDWKKPECKVRPNGRKRKCLACIKLGSEDKVLGRLVHCPIETQVLREAEEHQETQCLRVQRAGEDPHSFYFPGQFAFSKALPRS
modifications: left off: small tags and cut ends

- Activity of membrane-tethered ligand at human CMKLR1 (human CMKLR1 [1]): activated
- Activity of membrane-tethered ligand at mouse CMKLR1 (mouse CMKLR1 [2]): activated
B2: tChem 21-157: membrane-tethered full length chemerin (amino acids 21-157) (protein)
chain: MSTSMIRDVELAEEALPKKTGGPQGSRRCLFSLFIVAGATTLFCLLHFGVIELTEAQRRGLQVALEEFHKHPPVQWAFQETSVESAVDTPFPAGIFVRLEFKLQQTSCRKRDWKKPECKVRPNGRKRKCLACIKLGSEDKVLGRLVHCPIETQVLREAEEHQETQCLRVQRAGEDPHSFYFPGQFAFS
modifications: left off: small tags and cut ends

- Activity of membrane-tethered ligand at human CMKLR1 (human CMKLR1 [1]): lack activity
- Activity of membrane-tethered ligand at mouse CMKLR1 (mouse CMKLR1 [2]): lack activity
B3: tGalanin: negative control membrane-tethered ligand with the amino acid sequence of human galanin (protein)
chain: MSTSMIRDVELAEEALPKKTGGPQGSRRCLFSLFIVAGATTLFCLLHFGVIGWTLNSAGYLLGPHAVGNHRSFSDKNGLTS
modifications: left off: small tags and cut ends
